Source: patent US20090247559A1 (Exelixis, Inc., priority 2007, published 2009)
Counter-ions that a name gives are not always drawn. Like-named read-outs stand apart in the source and are kept apart here.

Legend:
CDC7 = CDC7 (Homo sapiens, UniProt O00311); assay: CDC7 inhibition, biochemical chemiluminescence assay (Kinase Glo, IC50 determination)
How it was run: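 CDC7 enzyme preincubated with compound 10 min at ambient temperature, then ATP mix in Tris Base added; reaction 90 min at 24-27 °C. Remaining ATP quantified by Kinase Glo luminescence to give IC50.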

[1] = molecular target: PIM (PIM-1, PIM-2, and/or PIM-3); assay: PIM-1, PIM-2 and PIM-3 inhibition, biochemical chemiluminescence assays (Kinase Glo, IC50 determination); conditions: Table 1 activity class; PIM refers to PIM-1, PIM-2, and/or PIM-3; read-out: PIM IC50 (Activity B)
CK2 = CK2 (Homo sapiens, UniProt P68400); assay: CK2 inhibition, biochemical chemiluminescence holoenzyme assay (Kinase Glo, IC50 determination); conditions: Table 1 activity class; symbol given only if active; read-out: CK2 IC50 (Activity C)
How it was run: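 Holoenzyme CK2 assay; compounds pre-incubated with substrate and enzyme, then reacted 150 min at 24-27° C. Remaining ATP measured as luminescence with Kinase Glo, and IC50 derived from the signal.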

[2] = Table 1 activity class, symbol given only if active, read-out: CDC7 IC50 (Activity A)
[3] = compounds in Table 1, read-out: CDC7 IC50 value

Sequence of CDC7 (O00311 whole entry): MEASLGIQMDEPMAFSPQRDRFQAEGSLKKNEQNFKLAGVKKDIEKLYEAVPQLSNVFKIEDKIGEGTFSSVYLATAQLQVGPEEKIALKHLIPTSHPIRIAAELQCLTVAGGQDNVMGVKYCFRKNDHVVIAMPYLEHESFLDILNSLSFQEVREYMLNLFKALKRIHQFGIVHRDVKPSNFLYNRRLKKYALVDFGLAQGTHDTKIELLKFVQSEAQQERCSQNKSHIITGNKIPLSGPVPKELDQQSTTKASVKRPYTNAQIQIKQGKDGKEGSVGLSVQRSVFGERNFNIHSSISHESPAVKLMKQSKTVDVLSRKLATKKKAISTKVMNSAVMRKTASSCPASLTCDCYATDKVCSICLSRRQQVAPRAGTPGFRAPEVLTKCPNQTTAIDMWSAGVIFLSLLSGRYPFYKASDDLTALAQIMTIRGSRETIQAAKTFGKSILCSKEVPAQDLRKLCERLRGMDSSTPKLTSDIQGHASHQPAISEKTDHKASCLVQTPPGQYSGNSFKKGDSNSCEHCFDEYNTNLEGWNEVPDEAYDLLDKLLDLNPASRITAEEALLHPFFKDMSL
Sequence of CDC7 (Q9UBU7 whole entry partner): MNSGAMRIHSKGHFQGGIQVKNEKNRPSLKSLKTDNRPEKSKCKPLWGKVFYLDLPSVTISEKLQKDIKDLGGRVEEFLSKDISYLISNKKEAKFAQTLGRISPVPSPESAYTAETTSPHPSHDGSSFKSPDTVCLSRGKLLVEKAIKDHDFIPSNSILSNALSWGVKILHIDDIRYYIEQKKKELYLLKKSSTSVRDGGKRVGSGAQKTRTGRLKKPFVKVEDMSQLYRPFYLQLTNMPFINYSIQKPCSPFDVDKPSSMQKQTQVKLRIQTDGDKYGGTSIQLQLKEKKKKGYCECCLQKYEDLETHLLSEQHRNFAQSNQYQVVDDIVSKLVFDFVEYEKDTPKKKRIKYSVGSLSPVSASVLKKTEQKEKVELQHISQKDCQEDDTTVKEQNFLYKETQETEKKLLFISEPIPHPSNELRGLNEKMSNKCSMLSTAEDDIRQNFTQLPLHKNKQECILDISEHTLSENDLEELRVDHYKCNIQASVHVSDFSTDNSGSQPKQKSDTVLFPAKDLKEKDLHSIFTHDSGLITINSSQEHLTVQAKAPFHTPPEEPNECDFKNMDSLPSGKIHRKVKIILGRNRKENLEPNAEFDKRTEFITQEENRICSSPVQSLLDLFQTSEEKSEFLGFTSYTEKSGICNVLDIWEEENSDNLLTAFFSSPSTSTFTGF
Sequence of CK2 (P68400 whole entry): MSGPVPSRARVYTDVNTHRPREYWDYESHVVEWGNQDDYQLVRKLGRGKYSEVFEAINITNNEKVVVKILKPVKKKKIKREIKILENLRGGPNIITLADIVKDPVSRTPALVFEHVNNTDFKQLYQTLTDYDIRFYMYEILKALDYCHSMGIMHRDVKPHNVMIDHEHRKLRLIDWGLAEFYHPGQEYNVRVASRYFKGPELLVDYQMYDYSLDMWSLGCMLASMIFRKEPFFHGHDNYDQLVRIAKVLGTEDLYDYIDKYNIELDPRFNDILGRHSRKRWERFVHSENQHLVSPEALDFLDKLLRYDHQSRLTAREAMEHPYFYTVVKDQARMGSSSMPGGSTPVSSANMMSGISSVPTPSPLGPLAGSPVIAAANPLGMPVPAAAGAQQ
Sequence of CK2 (P67870 whole entry partner): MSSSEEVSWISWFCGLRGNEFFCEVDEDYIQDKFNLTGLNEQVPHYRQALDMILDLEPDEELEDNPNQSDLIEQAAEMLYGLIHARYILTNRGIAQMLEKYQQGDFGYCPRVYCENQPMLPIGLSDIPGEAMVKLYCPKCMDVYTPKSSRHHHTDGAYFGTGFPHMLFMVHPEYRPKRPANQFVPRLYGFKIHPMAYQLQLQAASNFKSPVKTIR

Row | Compound | IC50 (CDC7; [2]) [µM] | IC50 [1] [µM] | IC50 (CK2) [µM] | IC50 (CDC7; [3]) [µM]
1 | O=c1[nH]c(-c2cnccc2Cl)nc2c1oc1ccc(Br)cc12 [Compound 148, 8-bromo-2-(4-chloropyridin-3-yl)[1]benzofuro[3,2-d]pyrimidin-4(3H)-one] | < 10 | < 10 | < 10 | 
2 | CC(C)C(c1nc2c(oc3ccc(Br)cc32)c(=O)[nH]1)N1CCCC1 (stereo not shown) [Compound 153, 8-Bromo-2-(2-methyl-1-pyrrolidin-1-ylpropyl)[1]benzofuro[3,2-d]pyrimidin-4(3H)-one] | < 10 | < 10 | < 10 | 
3 | O=c1[nH]c(-c2ccc(NCC3CCNC3)cc2Cl)nc2c1oc1ccc(Br)cc12 (stereo not shown) [Compound 154, 8-bromo-2-{2-chloro-4-[(pyrrolidin-3-ylmethyl)amino]phenyl}[1]benzofuro[3,2-d]pyrimidin-4(3H)-one] | < 10 | < 10 | < 10 | 
4 | O=c1[nH]c(-c2ccc(NCCC3CCCNC3)cc2Cl)nc2c1oc1ccc(Br)cc12 (stereo not shown) [Compound 155, 8-bromo-2-{2-chloro-4-[(2-piperidin-3-ylethyl)amino]phenyl}[1]benzofuro[3,2-d]pyrimidin-4(3H)-one] | < 10 | < 10 | < 10 | 
5 | O=c1[nH]c(C2CCNCC2)nc2c1oc1ccc(Br)cc12 [Compound 157, 8-bromo-2-piperidin-4-yl[1]benzofuro[3,2-d]pyrimidin-4(3H)-one] | < 10 | < 10 | < 10 | < 0.1
6 | O=c1[nH]c(C2CCCNC2)nc2c1oc1ccc(Br)cc12 (stereo not shown) [Compound 158, 8-Bromo-2-piperidin-3-yl[1]benzofuro[3,2-d]pyrimidin-4(3H)-one] | < 10 | < 10 | < 10 | < 0.1
7 | CN(C)CCCC(=O)Nc1ccc(-c2nc3c(oc4ccc(Br)cc43)c(=O)[nH]2)c(Cl)c1 [Compound 160, N-[4-(8-bromo-4-oxo-3,4-dihydro[1]benzofuro[3,2-d]pyrimidin-2-yl)-3-chlorophenyl]-4-(dimethylamino)butanamide] | < 10 | < 10 | < 10 | 
8 | O=C(Nc1ccc(-c2nc3c(oc4ccc(Br)cc43)c(=O)[nH]2)c(Cl)c1)C1CCNCC1 [Compound 161, N-[4-(8-bromo-4-oxo-3,4-dihydro[1]benzofuro[3,2-d]pyrimidin-2-yl)-3-chlorophenyl]piperidine-4-carboxamide] | < 10 | < 10 | < 10 | 
9 | O=c1[nH]c(CNCCc2ccncc2)nc2c1oc1ccc(Br)cc12 [Compound 166, 8-bromo-2-{[(2-pyridin-4-ylethyl)amino]methyl}[1]benzofuro[3,2-d]pyrimidin-4(3H)-one] | < 10 | < 10 | < 10 | < 0.1
10 | O=c1[nH]c(C2CCCN2)nc2c1oc1ccc(Br)cc12 (stereo not shown) [Compound 169, 8-bromo-2-pyrrolidin-2-yl[1]benzofuro[3,2-d]pyrimidin-4(3H)-one] | < 10 | < 10 | < 10 | < 0.1
11 | Nc1cc(-c2nc3c(oc4ccc(Br)cc43)c(=O)[nH]2)c(Cl)cn1 [Compound 173, 2-(2-amino-5-chloropyridin-4-yl)-8-bromo[1]benzofuro[3,2-d]pyrimidin-4(3H)-one] | < 10 | < 10 | < 10 | < 0.1
12 | NC(c1ccccc1)c1nc2c(oc3ccc(Br)cc32)c(=O)[nH]1 (stereo not shown) [Compound 174, 2-[amino(phenyl)methyl]-8-bromo[1]benzofuro[3,2-d]pyrimidin-4(3H)-one] | < 10 | < 10 | < 10 | < 0.1
13 | CC(N)c1nc2c(oc3ccc(Br)cc32)c(=O)[nH]1 (stereo not shown) [Compound 175, 2-(1-aminoethyl)-8-bromo[1]benzofuro[3,2-d]pyrimidin-4(3H)-one] | < 10 | < 10 | < 10 | < 0.1
14 | O=C(Nc1ccc(-c2nc3c(oc4ccc(Br)cc43)c(=O)[nH]2)c(Cl)c1)C1CCNC1 (stereo not shown) [Compound 178, N-[4-(8-bromo-4-oxo-3,4-dihydro[1]benzofuro[3,2-d]pyrimidin-2-yl)-3-chlorophenyl]pyrrolidine-3-carboxamide] | < 10 | < 10 | < 10 | 
15 | O=C(Cc1c[nH]cn1)Nc1ccc(-c2nc3c(oc4ccc(Br)cc43)c(=O)[nH]2)c(Cl)c1 [Compound 182, N-[4-(8-bromo-4-oxo-3,4-dihydro[1]benzofuro[3,2-d]pyrimidin-2-yl)-3-chlorophenyl]-2-(1H-imidazol-4-yl)acetamide] | < 10 | < 10 | < 10 | 

The remaining lines, values ahead:

Row | IC50 (CDC7; [2]) [µM] | IC50 [1] [µM] | IC50 (CK2) [µM] | IC50 (CDC7; [3]) [µM] | Compound
16 | < 10 | < 10 | < 10 | < 0.1 | CN1CCCC(c2nc3c(oc4ccc(Br)cc43)c(=O)[nH]2)C1 (stereo not shown) [Compound 184, dihydrochloride]
17 | < 10 | < 10 | < 10 | < 0.1 | CN1CCC(c2nc3c(oc4ccc(Br)cc43)c(=O)[nH]2)CC1 [Compound 185, 8-Bromo-2-(1-methylpiperidin-4-yl)[1]benzofuro[3,2-d]pyrimidin-4(3H)-one]
18 | < 10 | < 10 | < 10 | < 0.1 | O=c1[nH]c(C2CCNC2)nc2c1oc1ccc(Br)cc12 (stereo not shown) [Compound 186, 8-bromo-2-pyrrolidin-3-yl[1]benzofuro[3,2-d]pyrimidin-4(3H)-one]
19 | < 10 | < 10 | < 10 |  | CC(C)(NCc1nc2c(oc3ccc(Br)cc32)c(=O)[nH]1)C(=O)O [Compound 189, N-[(8-bromo-4-oxo-3,4-dihydro[1]benzofuro[3,2-d]pyrimidin-2-yl)methyl]-2-methylalanine]
20 | < 10 | < 10 | < 10 | < 0.1 | CC(C)(CN1CCCCC1)NCc1nc2c(oc3ccc(Br)cc32)c(=O)[nH]1 [Compound 191, 8-bromo-2-{[(1,1-dimethyl-2-piperidin-1-ylethyl)amino]methyl}[1]benzofuro[3,2-d]pyrimidin-4(3H)-one]
21 | < 10 | < 10 | < 10 |  | O=c1[nH]c(CC2CCCNC2)nc2c1oc1ccc(Br)cc12 (stereo not shown) [Compound 194, 8-bromo-2-(piperidin-3-ylmethyl)[1]benzofuro[3,2-d]pyrimidin-4(3H)-one]
22 | < 10 | < 10 | < 10 |  | NCc1nc2c(oc3ccc(Br)cc32)c(=O)[nH]1 [Compound 195, 2-(aminomethyl)-8-bromo[1]benzofuro[3,2-d]pyrimidin-4(3H)-one]
23 | < 10 | < 10 | < 10 |  | O=c1[nH]c(-c2ccc(NCCC3CCNCC3)cc2Cl)nc2c1oc1ccc(Br)cc12 [Compound 197, 8-bromo-2-{2-chloro-4-[(2-piperidin-4-ylethyl)amino]phenyl}[1]benzofuro[3,2-d]pyrimidin-4(3H)-one]
24 | < 10 | < 10 | < 10 | < 0.1 | O=c1[nH]c(C2CNC2)nc2c1oc1ccc(Br)cc12 [Compound 198, 2-Azetidin-3-yl-8-bromo[1]benzofuro[3,2-d]pyrimidin-4(3H)-one]
25 | < 10 | < 10 | < 10 | < 0.1 | O=c1[nH]c(CNC2CCCC2)nc2c1oc1ccc(Br)cc12 [Compound 199, 8-bromo-2-[(cyclopentylamino)methyl][1]benzofuro[3,2-d]pyrimidin-4(3H)-one]
26 | < 10 | < 10 | < 10 | < 0.1 | CC1CCN(Cc2nc3c(oc4ccc(Br)cc43)c(=O)[nH]2)CC1 [Compound 201, 8-bromo-2-[(4-methylpiperidin-1-yl)methyl][1]benzofuro[3,2-d]pyrimidin-4(3H)-one]
27 | < 10 | < 10 | < 10 |  | Nc1n[nH]c2cc(-c3nc4c(oc5ccc(Br)cc54)c(=O)[nH]3)c(Cl)cc12 [Compound 205, 2-(3-amino-5-chloro-1H-indazol-6-yl)-8-bromo[1]benzofuro[3,2-d]pyrimidin-4(3H)-one]
28 | < 10 | < 10 | < 10 | < 0.1 | O=c1[nH]c(Nc2cccnc2)nc2c1oc1ccc(Br)cc12 [Compound 214, 8-bromo-2-(pyridin-3-ylamino)[1]benzofuro[3,2-d]pyrimidin-4(3H)-one]
29 | < 10 | < 10 | < 10 | < 0.1 | C[C@@H]1CNC[C@H](C)N1Cc1nc2c(oc3ccc(Br)cc32)c(=O)[nH]1 [Compound 216, 8-bromo-2-{[(2R,6S)-2,6-dimethylpiperazin-1-yl]methyl}[1]benzofuro[3,2-d]pyrimidin-4(3H)-one]
30 | < 10 | < 10 | < 10 |  | O=C(CC1CCNCC1)Nc1ccc(-c2nc3c(oc4ccc(Br)cc43)c(=O)[nH]2)c(Cl)c1 [Compound 217, N-[4-(8-bromo-4-oxo-3,4-dihydro[1]benzofuro[3,2-d]pyrimidin-2-yl)-3-chlorophenyl]-2-piperidin-4-ylacetamide]
31 | < 10 | < 10 | < 10 |  | Nc1n[nH]c2ccc(-c3nc4c(oc5ccc(Br)cc54)c(=O)[nH]3)cc12 [Compound 220, 2-(3-amino-1H-indazol-5-yl)-8-bromo[1]benzofuro[3,2-d]pyrimidin-4(3H)-one]
